Reference: US20240374737A1, “ERK5 DEGRADERS AND USES THEREOF” (DANA-FARBER CANCER INSTITUTE, INC., priority 2021, published 2024)

Key:
[1] = biological target: T1, ERK5 (Homo sapiens, UniProt Q13164); assay: ERK5 degradation immunoblot in Molt4 cells; format: cell-based; conditions: for ERK5 degradation (immunoblot): 0.1 μM or 1 μM; for ERK5 degradation (immunoblot) / concentration at which ERK5 degradation is seen (as low as / up to): 5 hours
T1 construct: endogenous in cells; host or cells: Molt4 cells
T1 sequence (Q13164 whole entry): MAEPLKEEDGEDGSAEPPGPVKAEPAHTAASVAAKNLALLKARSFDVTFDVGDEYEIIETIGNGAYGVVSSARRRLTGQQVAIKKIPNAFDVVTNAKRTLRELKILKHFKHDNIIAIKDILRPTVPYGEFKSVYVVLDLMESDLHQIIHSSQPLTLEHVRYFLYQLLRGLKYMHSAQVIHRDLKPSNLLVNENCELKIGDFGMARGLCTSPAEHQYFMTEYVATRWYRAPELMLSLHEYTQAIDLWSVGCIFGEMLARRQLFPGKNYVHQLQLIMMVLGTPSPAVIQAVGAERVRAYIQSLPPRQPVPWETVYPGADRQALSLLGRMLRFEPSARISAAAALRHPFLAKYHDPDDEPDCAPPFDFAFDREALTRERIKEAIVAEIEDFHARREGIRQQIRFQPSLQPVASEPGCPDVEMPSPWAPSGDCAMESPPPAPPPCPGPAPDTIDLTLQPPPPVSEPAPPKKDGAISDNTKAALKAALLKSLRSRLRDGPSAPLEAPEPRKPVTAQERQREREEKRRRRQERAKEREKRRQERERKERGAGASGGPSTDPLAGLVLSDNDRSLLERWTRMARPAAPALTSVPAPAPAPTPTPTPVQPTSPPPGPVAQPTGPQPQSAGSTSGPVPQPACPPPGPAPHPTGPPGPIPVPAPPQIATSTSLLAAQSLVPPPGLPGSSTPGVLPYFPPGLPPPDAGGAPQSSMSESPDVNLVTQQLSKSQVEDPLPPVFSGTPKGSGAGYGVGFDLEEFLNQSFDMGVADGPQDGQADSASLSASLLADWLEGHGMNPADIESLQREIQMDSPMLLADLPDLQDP
Protocol: Molt4 cells were maintained in RPMI 1640 supplemented with 10% FBS and 100 U/mL Penicillin-Streptomycin at 37° C. in the presence of 5% CO2. […] The cells were then lysed with RIPA buffer containing phosphatase/protease inhibitor, and cell extracts were precleared by centrifugation at 21000×g for 5 minutes at 4° C. The Pierce BCA protein assay kit was used to assess protein lysate concentration and normalized using SDS sample buffer. Lysates were resolved on 4-12% Tris-Base gels and transferred to an Immuno-Blot PVDF membrane. The membrane was blocked for 1 hour, then incubated with primary antibodies against ERK5 (Cell Signaling) and j-Actin (Cell Signaling). The next day, membranes were washed with TBS-T, then incubated at room temperature for 1 hour with IRDye@800-labeled goat anti-rabbit IgG and IRDye@800-labeled goat anti-mouse IgG (LI-COR) secondary antibodies. The membranes were detected on Odyssey® CLx system.

[2] = biological target: T1, ERK5; assay: Multiplexed tandem mass tag quantitative mass spectrometry proteomics in Molt4 cells; format: cell-based; conditions: 100 nM, 5 hours, vs DMSO vehicle
Protocol: FIG. 3 is a scatterplot that depicts the change in relative protein abundance of compound 2 (100 nM, 5 h)-treated MOLT4 cells compared with DMSO vehicle control-treated cells. Protein abundance measurements were made using tandem mass tag quantitative mass spectrometry. The log 2fold change (log 2FC) is shown on the y axis and negative log 10p value (−log 10p value) on the x axis.

Question: What does the source list for `Cc1ncsc1-c1ccc([C@H](C)NC(=O)[C@@H]2C[C@@H](O)CN2C(=O)[C@@H](NC(=O)CCCCCN2CCN(c3ccc4c(C5CCN(C(=O)c6ccc(OC(F)(F)F)cc6N)CC5)ncnc4c3)CC2)C(C)(C)C)cc1` [compound 2, (2S,4R)-1-((S)-2-(6-(4-(4-(1-(2-amino-4-(trifluoromethoxy)benzoyl)piperidin-4-yl)quinazolin-7-yl)piperazin-1-yl)hexanamido)-3,3-dimethylbutanoyl)-4-hydroxy-N—((S)-1-(4-(4-methylthiazol-5-yl)phenyl)ethyl)pyrrolidine-2-carboxamide]?
Answer: time of treatment within which ERK5 degradation is induced ([1]; 0.1 μM and 1 μM, time course 1 h, 2 h, 3 h, 4 h): ≤ 2 h; ERK5 degradation (immunoblot) [1]: potently degraded ERK5; VHL dependence of ERK5 degradation ([1]; 5 h, compared with negative control): degraded ERK5 in a VHL-dependent manner; concentration at which ERK5 degradation is seen (as low as / up to) [1]: ≤ 0.05 µM; concentration at which ERK5 degradation is induced (as low as) ([1]; 5 hours of treatment): ≤ 50 nM; change in relative protein abundance (proteome-wide selectivity) [2]: significant downregulation of only ERK5 protein levels

Question: `Cc1ncsc1-c1ccc([C@H](C)NC(=O)[C@H]2C[C@H](O)CN2C(=O)[C@@H](NC(=O)CCCCCN2CCN(c3ccc4c(C5CCN(C(=O)c6ccc(OC(F)(F)F)cc6N)CC5)ncnc4c3)CC2)C(C)(C)C)cc1` [compound 13, (2R,4S)-1-((S)-2-(6-(4-(4-(1-(2-amino-4-(trifluoromethoxy)benzoyl)piperidin-4-yl)quinazolin-7-yl)piperazin-1-yl)hexanamido)-3,3-dimethylbutanoyl)-4-hydroxy-N—((S)-1-(4-(4-methylthiazol-5-yl)phenyl)ethyl)pyrrolidine-2-carboxamide, reference compound] was tested. Which “ERK5 degradation (immunoblot)” value [1] did it give?
Answer: did not recruit the VHL E3 ligase or induce ERK5 degradation

Question: And the “concentration at which ERK5 degradation is seen (as low as / up to)” value [1]?
Answer: > 5 µM
